For 16 molecules, IC50 results are on record in ChEMBL document CHEMBL1128821, “Evaluation of differential hypoxic cytotoxicity and electrochemical studies of nitro 5-deazaflavins” (Bioorg Med Chem Lett, 1995).

Test [1] relates to V79. Briefly: Differential hypoxic cytotoxicity towards chinese hamster cells (V79) using MTT assay under anaerobic conditions. The class given is functional, cell-based. The note with it: Cricetulus griseus. (Tetrazolium dyes change colour on reduction, which living cells bring about.)
Test [2] concerns V79. Briefly: Differential hypoxic cytotoxicity towards chinese hamster cells (V79) using MTT assay under aerobic conditions. The test is classed as functional, cell-based. As to conditions: Cricetulus griseus.

SMILES strings stand for the structures. Where only a bound is given, the exact number is not on record here.

A word on the IC50: it is the concentration at which inhibition is half-maximal. Low values mean higher potency, high ones lower potency. As for `CCCCCCCCCCCCn1c2nc(=O)[nH]c(=O)c-2cc2cc([N+](=O)[O-])ccc21`, the results for the half-inhibitory concentration (IC50) in the test with V79 [1] and in the test with V79 [2] were 22 µM and 16 µM, respectively.
On the same counts, the results for `CCCCCCCCCCCCn1c2nc(=O)[nH]c(=O)c-2cc2ccc([N+](=O)[O-])cc21` are 190 µM and 300 µM.
The matching figures for `CCCCCCCCn1c2nc(=O)n(-c3ccccc3)c(=O)c-2cc2c([N+](=O)[O-])cccc21`: 0.56 µM and 3.6 µM.
`CCCCCCCCCCCCn1c2nc(=O)n(C)c(=O)c-2cc2cccc([N+](=O)[O-])c21`: the IC50 in the test on V79 [1] and in the test with V79 [2] was greater than 1000 µM throughout.
As for `NC(=O)N/N=C/c1ccc([N+](=O)[O-])o1` [NITROFURAZONE], the IC50 with V79 [1] was found to be 270 µM; with V79 [2], 740 µM.
The matching figures for `CCCCCCCCCCCCn1c2nc(=O)[nH]c(=O)c-2cc2ccccc21`: greater than 1000 µM and greater than 1000 µM.
In the case of `CCCCCCCCCCCCn1c2nc(=O)[nH]c(=O)c-2cc2cccc([N+](=O)[O-])c21`, the IC50 in the test with V79 [1] came out at 3.6 µM; with V79 [2], 1.9 µM.
The matching figures for `CCCCCCCCn1c2nc(=O)n(-c3ccccc3)c(=O)c-2cc2ccccc21`: greater than 1000 µM and greater than 1000 µM.
As to `CCCCCCCCn1c2nc(=O)n(-c3ccccc3)c(=O)c-2cc2cc([N+](=O)[O-])ccc21`, the concentration for half-maximal inhibition (IC50) with V79 [1] amounted to 19 µM; with V79 [2], 27 µM.
On the same counts, the results for `CCCCCCCCCCCCn1c2nc(=O)n(C)c(=O)c-2cc2cc([N+](=O)[O-])ccc21` are greater than 1000 µM and greater than 1000 µM.
The matching figures for `CCCCCCCCCCCCn1c2nc(=O)n(C)c(=O)c-2cc2ccccc21`: greater than 1000 µM and greater than 1000 µM.
The matching figures for `CCCCCCCCCCCCn1c2nc(=O)[nH]c(=O)c-2cc2c([N+](=O)[O-])cccc21`: 1.1 µM and 4.3 µM.
`CCCCCCCCn1c2nc(=O)n(-c3ccccc3)c(=O)c-2cc2ccc([N+](=O)[O-])cc21`: the half-inhibitory concentration (IC50) with V79 [1] stood at 1.2 µM; in the test on V79 [2], 6.1 µM.
As for `CCCCCCCCn1c2nc(=O)n(-c3ccccc3)c(=O)c-2cc2cccc([N+](=O)[O-])c21`, the concentration for half-maximal inhibition (IC50) turned out to be 3.7 µM with V79 [1] and 1.7 µM in the test with V79 [2].
In the case of `CCCCCCCCCCCCn1c2nc(=O)n(C)c(=O)c-2cc2c([N+](=O)[O-])cccc21`, the half-maximal inhibitory concentration (IC50) amounted to 2.9 µM in the test with V79 [1] and 7.2 µM with V79 [2].
The matching figures for `CCCCCCCCCCCCn1c2nc(=O)n(C)c(=O)c-2cc2ccc([N+](=O)[O-])cc21`: 61 µM and 130 µM.
